From patent US20090036450A1, “PYRAZOLE COMPOUNDS AND USE THEREOF” (JAPAN TOBACCO, INC., priority 2006, published 2009)
pIC50: −log10 of the molar value.

The molecules below were run against T1, human liver glycogen phosphorylase (Homo sapiens, UniProt P06737) (assay: Liver glycogen phosphorylase activity, forward reaction system (NADPH detection at 340 nm)). Settings: enzyme inhibitory activity against recombinant human liver glycogen phosphorylase (Sf9 cell lysate), room temperature, 75 minutes.
T1 construct: made in house; host or cells: Sf9 insect cells (suspension of disrupted cells, diluted in BES buffer, not purified)
T1 sequence (P06737 1-847): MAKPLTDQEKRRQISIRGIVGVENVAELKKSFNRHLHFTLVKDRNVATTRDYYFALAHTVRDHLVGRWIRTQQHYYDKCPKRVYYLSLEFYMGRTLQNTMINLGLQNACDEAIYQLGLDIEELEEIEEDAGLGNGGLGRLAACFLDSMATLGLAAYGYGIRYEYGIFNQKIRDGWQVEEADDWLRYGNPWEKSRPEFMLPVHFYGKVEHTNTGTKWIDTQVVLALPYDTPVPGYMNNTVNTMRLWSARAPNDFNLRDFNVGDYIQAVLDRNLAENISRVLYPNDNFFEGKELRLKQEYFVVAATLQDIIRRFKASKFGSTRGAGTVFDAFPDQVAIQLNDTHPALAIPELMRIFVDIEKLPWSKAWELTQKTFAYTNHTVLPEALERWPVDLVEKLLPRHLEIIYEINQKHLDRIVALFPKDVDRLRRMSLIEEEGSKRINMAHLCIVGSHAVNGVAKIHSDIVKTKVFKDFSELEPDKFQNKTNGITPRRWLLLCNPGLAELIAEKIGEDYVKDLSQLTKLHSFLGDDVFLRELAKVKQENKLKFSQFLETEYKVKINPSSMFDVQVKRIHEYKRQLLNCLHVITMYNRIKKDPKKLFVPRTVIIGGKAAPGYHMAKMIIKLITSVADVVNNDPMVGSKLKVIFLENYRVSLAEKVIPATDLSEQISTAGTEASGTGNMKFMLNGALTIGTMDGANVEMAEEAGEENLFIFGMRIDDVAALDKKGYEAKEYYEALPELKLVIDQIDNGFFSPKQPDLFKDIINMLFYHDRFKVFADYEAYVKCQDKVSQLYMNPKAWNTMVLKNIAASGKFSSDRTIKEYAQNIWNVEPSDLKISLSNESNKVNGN
Type: biochemical
Description: The glycogen phosphorylase activity was determined by a method using a forward reaction system.
The following method was used to determine the glycogen phosphorylase activity using a forward reaction system. Glucose-1-phosphate generated from glycogen by glycogen phosphorylase was converted to glucono-δ-lactone-6-phosphate by transphosphorylation and dehydrogenation reactions using phosphoglucomutase and glucose-6-phosphate dehydrogenase (G6PDH). At this time, NADPH generated from NADP in the dehydrogenation reaction by G6PDH was detected.
An enzyme solution of human liver glycogen phosphorylase was obtained by diluting with 100 mmol/L BES buffer (pH 6.8, containing 2 mmol/L EDTA) a suspension disrupted Sf9 cells in which a recombinant human liver glycogen phosphorylase was forcibly expressed. Phosphate buffer (16 mmol/L KH2PO4, containing 24 mmol/L Na2HPO4) was used as a substrate solution. A mixture of 8 U/mL phosphoglucomutase and 60 U/mL G6PDH was prepared with BES buffer. A reaction buffer (1.4 mmol/L NADP, 30 mmol/L MgCl2, 8 μmol/L glucose-1,6-diphosphate, 8 mg/mL glycogen, 40 mmol/L BES, containing 0.8 mmol/L EDTA) and a glucose solution (75 mmol/L glucose and 100 mmol/L BES, containing 2 mmol/L EDTA) were prepared. A test substance was dissolved in 1% DMSO aqueous solution.
To a mixture of the glucose solution (20 μL), the substrate solution (20 μL), the reaction buffer (100 μL), and the test substance (20 μL), the recombinant human liver glycogen phosphorylase solution (20 μL), and a mixture (20 μL) of phosphoglucomutase and G6PDH were added to initiate an enzymatic reaction. To a control, 1% DMSO aqueous solution was added instead of the test substance. A solution to which the substrate was not added was used as a blank. After initiation of the reaction, absorbance at 340 nm was measured immediately. The reaction was performed at room temperature for 75 minutes, and then absorbance at 340 nm was measured again. The enzyme activity was obtained by deducting the change in absorbance of the blank for 75 minutes from the change in absorbance over 75 minutes. The inhibition rate (%) of the test substance was calculated by “(1−(enzyme activity of test substance)/(enzyme activity of control))×100”.
“IC50” represents an enzyme inhibitory activity against human liver glycogen phosphorylase.
With `CSCCc1oc(C)nc1CNC(=O)c1cc(NC(=O)c2cc(F)c(F)cc2Cl)[nH]n1` [Example 1-24, 5-(2-chloro-4,5-difluoro-benzoylamino)-1H-pyrazole-3-carboxylic acid [2-methyl-5-(2-methylsulfanyl-ethyl)-oxazol-4-ylmethyl]-amide] the pIC50 was > 7.00.
For `Cc1nc(-c2ccc(F)cc2)c(CNC(=O)c2cc(NC(=O)c3cc(F)c(F)cc3Cl)[nH]n2)o1` [Example 1-25, 5-(2-chloro-4,5-difluoro-benzoylamino)-1H-pyrazole-3-carboxylic acid [4-(4-fluoro-phenyl)-2-methyl-oxazol-5-ylmethyl]-amide], the pIC50 was > 7.00.
In the case of `Cc1nc(-c2cccc(F)c2)c(CNC(=O)c2cc(NC(=O)c3cc(F)c(F)cc3Cl)[nH]n2)o1` [Example 1-26, 5-(2-chloro-4,5-difluoro-benzoylamino)-1H-pyrazole-3-carboxylic acid [4-(3-fluoro-phenyl)-2-methyl-oxazol-5-ylmethyl]-amide], the pIC50 was > 7.00.
For `Cc1nc(-c2ccccc2F)c(CNC(=O)c2cc(NC(=O)c3cc(F)c(F)cc3Cl)[nH]n2)o1` [Example 1-27, 5-(2-chloro-4,5-difluoro-benzoylamino)-1H-pyrazole-3-carboxylic acid [4-(2-fluoro-phenyl)-2-methyl-oxazol-5-ylmethyl]-amide], the pIC50 was > 7.00.
For `Cc1nc(-c2ccc(Cl)cc2)c(CNC(=O)c2cc(NC(=O)c3cc(F)c(F)cc3Cl)[nH]n2)o1` [Example 1-28, 5-(2-chloro-4,5-difluoro-benzoylamino)-1H-pyrazole-3-carboxylic acid [4-(4-chloro-phenyl)-2-methyl-oxazol-5-ylmethyl]-amide], the pIC50 was > 7.00.
For `Cc1ccc(-c2nc(C)oc2CNC(=O)c2cc(NC(=O)c3cc(F)c(F)cc3Cl)[nH]n2)cc1` [Example 1-29, 5-(2-chloro-4,5-difluoro-benzoylamino)-1H-pyrazole-3-carboxylic acid [4-(4-methyl-phenyl)-2-methyl-oxazol-5-ylmethyl]-amide], the pIC50 was > 7.00.
`Cc1cccc(-c2nc(C)oc2CNC(=O)c2cc(NC(=O)c3cc(F)c(F)cc3Cl)[nH]n2)c1` [Example 1-30, 5-(2-chloro-4,5-difluoro-benzoylamino)-1H-pyrazole-3-carboxylic acid [4-(3-methyl-phenyl)-2-methyl-oxazol-5-ylmethyl]-amide] was tested, and the pIC50 was > 7.00.
In the case of `COc1cccc(-c2nc(C)oc2CNC(=O)c2cc(NC(=O)c3cc(F)c(F)cc3Cl)[nH]n2)c1` [Example 1-31, 5-(2-chloro-4,5-difluoro-benzoylamino)-1H-pyrazole-3-carboxylic acid [4-(3-methoxy-phenyl)-2-methyl-oxazol-5-ylmethyl]-amide], the pIC50 was > 7.00.
In the case of `Cc1nc(-c2ccc(-c3ccccc3)cc2)c(CNC(=O)c2cc(NC(=O)c3cc(F)c(F)cc3Cl)[nH]n2)o1` [Example 1-32, 5-(2-chloro-4,5-difluoro-benzoylamino)-1H-pyrazole-3-carboxylic acid (4-biphenyl-4-yl-2-methyl-oxazol-5-ylmethyl)-amide], the pIC50 was > 7.00.
`Cc1nc(CCc2ccccc2)c(CNC(=O)c2cc(NC(=O)c3cc(F)c(F)cc3Cl)[nH]n2)o1` [Example 1-33, 5-(2-chloro-4,5-difluoro-benzoylamino)-1H-pyrazole-3-carboxylic acid (2-methyl-4-phenethyl-oxazol-5-ylmethyl)-amide] was tested, and the pIC50 was > 7.00.
With `CCOC(=O)c1nc(C)oc1CNC(=O)c1cc(NC(=O)c2cc(F)c(F)cc2Cl)[nH]n1` [Example 1-34, 5-(2-chloro-4,5-difluoro-benzoylamino)-1H-pyrazole-3-carboxylic acid (4-ethoxycarbonyl-2-methyl-oxazol-5-ylmethyl)-amide] the pIC50 was > 7.00.
With `Cc1nc(CO)c(CNC(=O)c2cc(NC(=O)c3cc(F)c(F)cc3Cl)[nH]n2)o1` [Example 1-35, 5-(2-chloro-4,5-difluoro-benzoylamino)-1H-pyrazole-3-carboxylic acid (4-hydroxymethyl-2-methyl-oxazol-5-ylmethyl)-amide] the pIC50 was > 7.00.
In the case of `Cc1nc(Cc2ccccc2)c(CNC(=O)c2cc(NC(=O)c3cc(F)c(F)cc3Cl)[nH]n2)o1` [Example 1-36, 5-(2-chloro-4,5-difluoro-benzoylamino)-1H-pyrazole-3-carboxylic acid (4-benzyl-2-methyl-oxazol-5-ylmethyl)-amide p-toluenesulfonate], the pIC50 was > 7.00.
`Cc1nc(C2CC2)c(CNC(=O)c2cc(NC(=O)c3cc(F)c(F)cc3Cl)[nH]n2)o1` [Example 1-37, 5-(2-chloro-4,5-difluoro-benzoylamino)-1H-pyrazole-3-carboxylic acid (4-cyclopropyl-2-methyl-oxazol-5-ylmethyl)-amide] was tested, and the pIC50 was > 7.00.
With `Cc1nc(C2CCCCC2)c(CNC(=O)c2cc(NC(=O)c3cc(F)c(F)cc3Cl)[nH]n2)o1` [Example 1-38, 5-(2-chloro-4,5-difluoro-benzoylamino)-1H-pyrazole-3-carboxylic acid (4-cyclohexyl-2-methyl-oxazol-5-ylmethyl)-amide] the pIC50 was > 7.00.
`Cc1nc(C2CC2)oc1CNC(=O)c1cc(NC(=O)c2cc(F)c(F)cc2Cl)[nH]n1` [Example 1-39, 5-(2-chloro-4,5-difluoro-benzoylamino)-1H-pyrazole-3-carboxylic acid (2-cyclopropyl-4-methyl-oxazol-5-ylmethyl)-amide] was tested, and the pIC50 was > 7.00.
With `Cc1nc(C2CCCCC2)oc1CNC(=O)c1cc(NC(=O)c2cc(F)c(F)cc2Cl)[nH]n1` [Example 1-40, 5-(2-chloro-4,5-difluoro-benzoylamino)-1H-pyrazole-3-carboxylic acid (2-cyclohexyl-4-methyl-oxazol-5-ylmethyl)-amide] the pIC50 was > 7.00.
With `Cc1nc(Cc2ccccc2)oc1CNC(=O)c1cc(NC(=O)c2cc(F)c(F)cc2Cl)[nH]n1` [Example 1-41, 5-(2-chloro-4,5-difluoro-benzoylamino)-1H-pyrazole-3-carboxylic acid (2-benzyl-4-methyl-oxazol-5-ylmethyl)-amide] the pIC50 was > 7.00.
For `Cc1nc(CCc2ccccc2)oc1CNC(=O)c1cc(NC(=O)c2cc(F)c(F)cc2Cl)[nH]n1` [Example 1-42, 5-(2-chloro-4,5-difluoro-benzoylamino)-1H-pyrazole-3-carboxylic acid (4-methyl-2-phenethyl-oxazol-5-ylmethyl)-amide], the pIC50 was > 7.00.
In the case of `Cc1nc(COC(c2ccccc2)(c2ccccc2)c2ccccc2)oc1CNC(=O)c1cc(NC(=O)c2cc(F)c(F)cc2Cl)[nH]n1` [Example 1-43, 5-(2-chloro-4,5-difluoro-benzoylamino)-1H-pyrazole-3-carboxylic acid (4-methyl-2-trityloxymethyl-oxazol-5-ylmethyl)-amide], the pIC50 was < 6.52.
With `Cc1nc(COc2ccccc2)oc1CNC(=O)c1cc(NC(=O)c2cc(F)c(F)cc2Cl)[nH]n1` [Example 1-44, 5-(2-chloro-4,5-difluoro-benzoylamino)-1H-pyrazole-3-carboxylic acid (4-methyl-2-phenoxymethyl-oxazol-5-ylmethyl)-amide] the pIC50 was > 7.00.
In the case of `COCc1nc(C)c(CNC(=O)c2cc(NC(=O)c3cc(F)c(F)cc3Cl)[nH]n2)o1` [Example 1-45, 5-(2-chloro-4,5-difluoro-benzoylamino)-1H-pyrazole-3-carboxylic acid (2-methoxymethyl-4-methyl-oxazol-5-ylmethyl)-amide], the pIC50 was > 7.00.
For `Cc1nc(COCC(F)(F)F)oc1CNC(=O)c1cc(NC(=O)c2cc(F)c(F)cc2Cl)[nH]n1` [Example 1-46], the pIC50 was > 7.00.
